Source: ChEMBL document CHEMBL1150235, “Parnapimarol and nepetaparnone from Nepeta parnassica” (2008)
Activity calls are given as the source filed them. No cut-off for these calls is given here.

Tests used:
[1] = system: Culex pipiens molestus; assay: Insecticidal activity against Culex pipiens molestus larvae at 10 to 50 mg/L after 6 to 24 hrs; format: functional, organism-based
[2] = system: Leptothorax; assay: Insecticidal activity against Leptothorax sp. assessed as number of dead ants at 0.5 mg after 6 to 24 hrs relative to control; format: functional

Structure (SMILES) | Activity [1] | Activity [2] [%]
CC1=C2CC[C@H](C)[C@@]23C(=O)O[C@H]1[C@@]12C(=O)O[C@H]3C(C)=C1CC[C@@H]2C [NEPETANUDONE] | inactive | 45
CC1=C2CC[C@@H](C)[C@@]23C(=O)O[C@H]1[C@@]12C(=O)O[C@H]3C(C)=C1CC[C@@H]2C [NEPETAPARNONE] | inactive | 55
C=C[C@]1(C)CCC2=C(CC[C@H]3[C@](C)(COC(=O)C(C)CC)CC[C@H](O)[C@]23C)[C@@H]1OC(C)=O (stereo partly specified) [PARNAPIMAROL] | inactive | 31
